Data: publication PMC8899516, “Structure-Activity Relationship Studies of 4-((4-(2-fluorophenyl)piperazin-1-yl)methyl)-6-imino-N-(naphthalen-2-yl)-1,3,5-triazin-2-amine (FPMINT) Analogues as Inhibitors of Human Equilibrative Nucleoside Transporters” (Frontiers in Pharmacology, 2022)

Assays:
ENT1 = molecular target: T1, ENT1 (Homo sapiens, UniProt Q99808); assay: Wash-out reversibility of [3H]uridine uptake inhibition in PK15NTD/ENT1 cells; assay type: cell-based; conditions: 50 µM, incubation 1–60 min, washed five times
T1 construct: expressed in transfected cells
T1 sequence (Q99808 1-456): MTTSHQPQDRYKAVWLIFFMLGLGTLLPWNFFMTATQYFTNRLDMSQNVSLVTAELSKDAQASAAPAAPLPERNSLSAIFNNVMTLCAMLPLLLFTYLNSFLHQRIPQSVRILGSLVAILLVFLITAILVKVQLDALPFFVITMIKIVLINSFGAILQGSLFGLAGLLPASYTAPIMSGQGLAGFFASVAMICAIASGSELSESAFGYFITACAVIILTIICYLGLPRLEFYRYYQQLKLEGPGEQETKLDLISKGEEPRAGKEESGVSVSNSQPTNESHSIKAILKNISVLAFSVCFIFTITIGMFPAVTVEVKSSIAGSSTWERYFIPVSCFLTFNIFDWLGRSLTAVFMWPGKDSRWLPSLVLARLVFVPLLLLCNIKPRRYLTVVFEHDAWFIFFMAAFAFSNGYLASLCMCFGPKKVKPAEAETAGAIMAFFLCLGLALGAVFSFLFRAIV
Method: To determine whether the inhibitory effects of compound 3c were reversible or irreversible, PK15NTD/ENT1 and PK15NTD/ENT2 cells were incubated with 50 µM of compound 3c for different time periods (1–60 min). The cells were then washed five times with buffer. After wash-out for every single time [^3H]uridine uptake was measured. […] The longer the incubation time with compound 3c, the more difficult it was to wash-out the inhibitory effects of compound 3c.
FIGURE 6 Reversibility of the inhibitory effects of compound 3c on ENT1 and ENT2 (A) PK15NTD/ENT1 and (B) PK15NTD/ENT2 cells were incubated with 50 μM of compound 3c or a vehicle (0.5% DMSO, as a control) for different time (0–60 min) The cells were then washed five times. After wash-out for every single time [^3H]uridine uptake (1 μM, 2 μCi/ml) was measured. Data are presented as mean ± SE of three experiments. ^* p < 0.05 compared with the fifth wash.

PK15NTD/ENT2 cells = assay: Cell membrane integrity, LDH release; assay type: cell-based, porcine; conditions: 50 µM, 24 or 48 h
Method: (§1) PK15NTD/ENT1 and PK15NTD/ENT2 cells were seeded onto 96-well plates until they reached 80–90% confluent. The cells were then treated with different concentrations of compound 3c or an equivalent volume of a vehicle (0.5% dimethyl sulfoxide (DMSO), as a control) in a serum-free medium for another 24 or 48 h. For measuring cell membrane integrity, the lactate dehydrogenase (LDH) released into the culture medium was measured with a detection kit (Abcam, Cambridge, UK) according to the manufacturer’s instructions. The absorbance at 490 nm was measured with a microplate absorbance reader. For measuring cell viability, 0.5 mg/ml methylthiazolyldiphenyl-tetrazolium bromide (MTT) was added to each well. […] The absorbance was measured at 560 nm, with the absorbance at 655 nm serving as the background.
(§2) FIGURE 5 Effects of compound 3c on cytotoxicity and protein expressions of ENT1 and ENT2. Cytotoxicity of compound 3c was measured after 24 h or 48 h treatment of PK15NTD/ENT1 and PK15NTD/ENT2 cells with various concentrations of compound 3c (0.5, 5 and 50 μM) or a vehicle (0.5% DMSO, as a control) (A) The cell viability and (B) cell membrane integrity were determined by the MTT assay and LDH release, respectively (C) PK15NTD/ENT1 and (D) PK15NTD/ENT2 cells were incubated with 50 μM of compound 3c or a vehicle (0.5% DMSO, as a control) for 24 or 48 h. […]

PK15NTD/ENT1 cells = assay: Cell membrane integrity, LDH release; assay type: cell-based, porcine; conditions: 50 µM, 24 or 48 h
Method: as §1, §2

Cc1cccc(Nc2nc(N)nc(CN3CCN(c4ccc(F)cc4)CC3)n2)c1 [Compound 3c]
reversibility of inhibitory effect on ENT1 by washing (ENT1): only partially reversed by washing
cell membrane integrity (PK15NTD/ENT2 cells): No significant changes
cell membrane integrity (PK15NTD/ENT1 cells): No significant changes
